Results published in PMC5050210, “BdorOBP83a-2 Mediates Responses of the Oriental Fruit Fly to Semiochemicals” (Frontiers in Physiology, 2016).

What was measured:
BdorOBP83a-2 [1] = target: T1, BdorOBP83a-2 (Bactrocera dorsalis, UniProt A0A0G2UEQ3); experiment: direct fluorescence titration; type: binding; details: 50 mM Tris-HCl pH 7.4, 25°C; 2 μM protein, 1-16 μM 1-NPN; fluorescent probe
T1 construct: gene OBP83a-2; mature protein without signal peptide
T1 sequence (A0A0G2UEQ3 24-148): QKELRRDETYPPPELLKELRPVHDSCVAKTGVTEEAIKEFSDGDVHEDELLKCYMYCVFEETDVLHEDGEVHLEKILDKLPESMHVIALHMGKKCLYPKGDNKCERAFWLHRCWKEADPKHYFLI

BdorOBP84a-2 = target: T2, BdorOBP84a-2 (Bactrocera dorsalis, UniProt A0A0G2UEQ7); experiment: direct fluorescence titration; type: binding; details: 50 mM Tris-HCl pH 7.4, 25°C; 2 μM protein, 1-16 μM 1-NPN; fluorescent probe
T2 construct: gene OBP84a-2; mature protein without signal peptide
T2 sequence (A0A0G2UEQ7 26-170): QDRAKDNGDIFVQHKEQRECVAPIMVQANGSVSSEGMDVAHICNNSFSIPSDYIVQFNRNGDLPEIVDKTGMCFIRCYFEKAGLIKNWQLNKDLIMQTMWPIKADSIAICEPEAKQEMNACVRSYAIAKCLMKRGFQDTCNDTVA

BdorOBP84a-1 [2] = target: T3, BdorOBP84a-1 (Bactrocera dorsalis, UniProt A0A0G2UGI7); experiment: direct fluorescence titration; type: binding; details: 50 mM Tris-HCl pH 7.4, 25°C; 2 μM protein, 1-16 μM 1-NPN; fluorescent probe
T3 construct: gene OBP84a-1; mature protein without signal peptide
T3 sequence (A0A0G2UGI7 25-167): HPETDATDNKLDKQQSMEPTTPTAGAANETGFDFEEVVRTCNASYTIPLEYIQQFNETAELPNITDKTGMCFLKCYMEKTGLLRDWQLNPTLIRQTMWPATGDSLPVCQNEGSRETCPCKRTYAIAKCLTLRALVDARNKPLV

BdorOBP83a-1 [3] = target: T4, BdorOBP83a-1 (Bactrocera dorsalis, UniProt A0A0G2UGI4); experiment: direct fluorescence titration; type: binding; details: 50 mM Tris-HCl pH 7.4, 25°C; 2 μM protein, 1-16 μM 1-NPN; fluorescent probe
T4 construct: gene OBP83a-1; mature protein without signal peptide
T4 sequence (A0A0G2UGI4 32-155): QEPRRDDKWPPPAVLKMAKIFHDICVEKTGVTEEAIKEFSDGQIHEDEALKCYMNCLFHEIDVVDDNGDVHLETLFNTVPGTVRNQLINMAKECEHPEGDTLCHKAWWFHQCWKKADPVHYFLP

BdorCSP3 = target: T5, BdorCSP3 (Bactrocera dorsalis, UniProt A0A0G2UMR0); experiment: direct fluorescence titration; type: binding; details: 50 mM Tris-HCl pH 7.4, 25°C; 2 μM protein, 1-16 μM 1-NPN; fluorescent probe
T5 construct: gene CSP3; mature protein without signal peptide
T5 sequence (A0A0G2UMR0 23-156): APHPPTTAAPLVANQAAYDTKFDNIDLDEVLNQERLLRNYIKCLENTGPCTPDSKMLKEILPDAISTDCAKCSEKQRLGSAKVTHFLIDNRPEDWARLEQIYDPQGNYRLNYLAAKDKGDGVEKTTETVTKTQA

BdorOBP56h [4] = target: T6, BdorOBP56h (Bactrocera dorsalis, UniProt A0A0G2UMU0); experiment: direct fluorescence titration; type: binding; details: 50 mM Tris-HCl pH 7.4, 25°C; 2 μM protein, 1-16 μM 1-NPN; fluorescent probe
T6 construct: gene OBP56h; mature protein without signal peptide
T6 sequence (A0A0G2UMU0 20-136): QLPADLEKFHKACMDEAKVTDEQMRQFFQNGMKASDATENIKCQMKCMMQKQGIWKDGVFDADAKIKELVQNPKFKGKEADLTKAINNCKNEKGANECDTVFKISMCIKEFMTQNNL

BdorOBP56h [5] = target: T6, BdorOBP56h; experiment: biochemical; set-up: Fluorescence competitive displacement of 1-NPN from recombinant OBP, 25 °C, pH 7.4; competitor 5-50 uM; details: 1-NPN displacement; for IC50: 2 uM protein, 2 uM 1-NPN, extrapolated, read-out: BdorOBP56 / IC50; for Kd: Kd from IC50, extrapolated, read-out: BdorOBP56 / Kd
Protocol: (§1) Fluorescence spectra were measured on an F-7000 FL Fluorescence Spectrophotometer (Hitachi) in a 10 mm light path quartz cuvette at 25°C. All were excited at 337 nm with emission and excitation slit of both 10 nm. The emission spectra were recorded between 350 and 500 nm. […] All measurements were performed in triplicates and mean values and standard errors are calculated. […] To determine the roles of specific OBPs in recognition of attractants in B. dorsalis, recombinant proteins of selected antenna-abundant OBPs and CSPs were obtained using a prokaryotic expression system (Figure 5). Purified OBPs and CSPs were used to determine binding affinity of each protein via fluorescence competitive binding assays. Thirteen pure attractant compounds were tested against each recombinant protein. […] Except for BdorCSP3 and BdorOBP84a-2, all remaining OBPs could bind to the tested compounds (Figure 6; Table S8). […] Alternatively they might be involved in functions other than odor detection. […] Overall, we observed lower binding affinity with our recombinant proteins and tested attractants. […] In other studies, much higher affinity has been reported. For example, competitive binding assays with a lepidopteran pheromone-binding protein can reach nearly 100% displacement (Hooper et al., [2009]; Gu et al., [2013]), and competitive binding assays with an aphid OBP (OBP7) can reach about 80% displacement with the alarm pheromone (E)-ss-farnesene (Sun et al., [2012]). The biological significance of the observed lower affinity with B. doralis OBPs here remains to be determined. It could be due to diverse binding mechanisms between different functional OBPs and the corresponding compounds. Alternatively, BdorOBP83a-2 may […] The sequences of BdorOBPs and BdorCSPs encoding mature proteins (without signal peptide) were amplified by PCR using specific primers carrying a restriction site EcoRI or XhoI (Table S2). PCR fragments were digested with both EcoRI and XhoI enzymes and the released DNA fragments were cloned into a PET-32a vector (Invitrogen), which were used to transform BL21 (DE3) E. coli competent cells (Invitrogen). A selected positive clone was grown overnight in 5 mL [compound left out] LB/ampicillin medium overnight at 37°C. Protein expression was induced with 1 mM IPTG for 3 h when the culture had reached an OD600-value of 0.7–0.9. Cells were then harvested by centrifugation and lysed by sonication. After sonication and centrifugation, most recombinant proteins were present in inclusion bodies. […] Renaturation of purified proteins were accomplished by gradient dilution at 4°C. His-tag was removed by digestion with recombinant enterokinase (Novagen) and the digested mixtures were passed through a HisTrap affinity column to remove any undigested protein. At each step during protein preparation and purification, protein extracts, and purified proteins were examined on 15% SDS-PAGE.

BdorOBP83a-2 [6] = target: T1, BdorOBP83a-2; experiment: biochemical; set-up: Fluorescence competitive displacement of 1-NPN from recombinant OBP, 25 °C, pH 7.4; competitor 5-50 uM; details: 1-NPN displacement, Kd from IC50
Protocol: as §1

BdorOBP83a-1 [7] = target: T4, BdorOBP83a-1; experiment: biochemical; set-up: Fluorescence competitive displacement of 1-NPN from recombinant OBP, 25 °C, pH 7.4; competitor 5-50 uM; details: 1-NPN displacement, Kd from IC50, extrapolated
Protocol: as §1

BdorOBP84a-1 [8] = target: T3, BdorOBP84a-1; experiment: biochemical; set-up: Fluorescence competitive displacement of 1-NPN from recombinant OBP, 25 °C, pH 7.4; competitor 5-50 uM; details: 1-NPN displacement; for IC50: 2 uM protein, 2 uM 1-NPN, extrapolated; for Kd: Kd from IC50, extrapolated
Protocol: as §1

BdorOBP83a-2 [9] = target: T1, BdorOBP83a-2; experiment: biochemical; set-up: Fluorescence competitive displacement of 1-NPN from recombinant OBP, 25 °C, pH 7.4; competitor 5-50 uM; details: 1-NPN displacement, 2 uM protein, 2 uM 1-NPN
Protocol: (§2) Fluorescence spectra were measured on an F-7000 FL Fluorescence Spectrophotometer (Hitachi) in a 10 mm light path quartz cuvette at 25°C. […] The emission spectra were recorded between 350 and 500 nm. […] All measurements were performed in triplicates and mean values and standard errors are calculated. […] To determine the roles of specific OBPs in recognition of attractants in B. dorsalis, recombinant proteins of selected antenna-abundant OBPs and CSPs were obtained using a prokaryotic expression system (Figure 5). Purified OBPs and CSPs were used to determine binding affinity of each protein via fluorescence competitive binding assays. Thirteen pure attractant compounds were tested against each recombinant protein. […] PCR fragments were digested with both EcoRI and XhoI enzymes and the released DNA fragments were cloned into a PET-32a vector (Invitrogen), which were used to transform BL21 (DE3) E. coli competent cells (Invitrogen). […] LB/ampicillin medium overnight at 37°C. Protein expression was induced with 1 mM IPTG for 3 h when the culture had reached an OD600-value of 0.7–0.9. Cells were then harvested by centrifugation and lysed by sonication. […] Renaturation of purified proteins were accomplished by gradient dilution at 4°C. His-tag was removed by digestion with recombinant enterokinase (Novagen) and the digested mixtures were passed through a HisTrap affinity column to remove any undigested protein. At each step during protein preparation and purification, protein extracts, and purified proteins were examined on 15% SDS-PAGE.

BdorOBP83a-1 [10] = target: T4, BdorOBP83a-1; experiment: biochemical; set-up: Fluorescence competitive displacement of 1-NPN from recombinant OBP, 25 °C, pH 7.4; competitor 5-50 uM; details: 1-NPN displacement, 2 uM protein, 2 uM 1-NPN, extrapolated
Protocol: as §2

BdorOBP56h [11] = target: T6, BdorOBP56h; experiment: 1-NPN fluorescence competition; type: binding; details: 50 mM Tris-HCl pH 7.4, 25°C; 2 μM protein, 2 μM 1-NPN; competitive displacement
Protocol: 1-NPN fluorescence competition on BdorOBP56h | all remaining OBPs could bind to the tested compounds

BdorOBP83a-1 [12] = target: T4, BdorOBP83a-1; experiment: 1-NPN fluorescence competition; type: binding; details: 50 mM Tris-HCl pH 7.4, 25°C; 2 μM protein, 2 μM 1-NPN; competitive displacement
BdorOBP84a-1 [13] = target: T3, BdorOBP84a-1; experiment: 1-NPN fluorescence competition; type: binding; details: 50 mM Tris-HCl pH 7.4, 25°C; 2 μM protein, 2 μM 1-NPN; competitive displacement
Excerpt: 1-NPN fluorescence competition on BdorOBP84a-1 | all remaining OBPs could bind to the tested compounds

BdorOBP83a-2 [14] = target: T1, BdorOBP83a-2; experiment: 1-NPN fluorescence competition; type: binding; details: 50 mM Tris-HCl pH 7.4, 25°C; 2 μM protein, 2 μM 1-NPN; competitive displacement

Row | SMILES | IC50 (BdorOBP56h [5]) [µM] | Kd (BdorOBP56h [5]) [µM] | Kd (BdorOBP83a-2 [6]) [µM] | Kd (BdorOBP83a-1 [7]) [µM] | IC50 (BdorOBP84a-1 [8]) [µM] | Kd (BdorOBP84a-1 [8]) [µM] | IC50 (BdorOBP83a-2 [9]) [µM] | IC50 (BdorOBP83a-1 [10]) [µM] | also measured
1 | c1ccc(Nc2cccc3ccccc23)cc1 [1-NPN] |  |  |  |  |  |  |  |  | K1-NPN (BdorOBP83a-2 [1]): exhibited high affinity to the fluorescent probe 1-NPN; K1-NPN (BdorOBP84a-2): exhibited high affinity to the fluorescent probe 1-NPN; K1-NPN (BdorOBP84a-1 [2]): exhibited high affinity to the fluorescent probe 1-NPN; K1-NPN (BdorOBP83a-1 [3]): exhibited high affinity to the fluorescent probe 1-NPN; K1-NPN (BdorCSP3): exhibited high affinity to the fluorescent probe 1-NPN; K1-NPN (BdorOBP56h [4]): exhibited high affinity to the fluorescent probe 1-NPN
2 | c1ccc2scnc2c1 [Benzothiazole] | > 50 | > 50 | > 50 | > 50 | > 50 | > 50 | > 50 | > 50 | 
3 | COc1cc(/C=C/CO)ccc1O [E-coniferyl alcohol] |  |  | > 50 | > 50 | > 50 | > 50 | > 50 | > 50 | 
4 | CCOC(C)=O [Ethyl acetate] | > 50 | > 50 | > 50 | > 50 |  |  | > 50 | > 50 | 
5 | CCOC(=O)c1ccccc1 [Ethyl benzoate] | > 50 | > 50 | > 50 |  | > 50 | > 50 | > 50 |  | 
6 | CC1=CCC(=C(C)C)CC1 [Terpinolene] | > 50 | > 50 | > 50 | > 50 | > 50 | > 50 | > 50 | > 50 | 
7 | C=CCc1ccc(OC)c(OC)c1 [methyl eugenol, 4-allyl-1,2-dimethoxybenzene] | > 50 |  |  |  |  |  | 50.8 | > 50 | Kd (BdorOBP56h [11]): 578 µM; Kd (BdorOBP83a-1 [12]): 2530 µM; Kd (BdorOBP84a-1 [13]): 79700 µM; Kd (BdorOBP83a-2 [14]): 34 µM
8 | CCCCCCCC1CCC(=O)O1 (stereo not drawn) [γ-undecalactone] |  |  |  |  | > 50 | > 50 |  |  | 
9 | CCCC1CCCC(=O)O1 (stereo not drawn) [δ-octalactone] | > 50 | > 50 |  |  |  |  | > 50 |  | Kd (BdorOBP83a-1 [12]): 12700 µM; Kd (BdorOBP83a-2 [14]): 54.7 µM

Further lines, with some results ahead:

Row | IC50 (BdorOBP56h [5]) [µM] | Kd (BdorOBP56h [5]) [µM] | Kd (BdorOBP83a-2 [6]) [µM] | Kd (BdorOBP83a-1 [7]) [µM] | IC50 (BdorOBP84a-1 [8]) [µM] | Kd (BdorOBP84a-1 [8]) [µM] | IC50 (BdorOBP83a-2 [9]) [µM] | IC50 (BdorOBP83a-1 [10]) [µM] | SMILES | also measured
10 | > 50 | > 50 | > 50 | > 50 | > 50 | > 50 | > 50 | > 50 | C=CC(O)CCCCC (stereo not drawn) [1-octen-3-ol] | 
11 | > 50 | > 50 | > 50 | > 50 |  |  | > 50 | > 50 | C/C=C(\C)C(=O)OCC [Ethyl tiglate] | 
12 | > 50 | > 50 |  |  | > 50 | > 50 | > 50 |  | CCCCCC1CCC(=O)O1 (stereo not drawn) [γ-nonanoic lactone] | Kd (BdorOBP83a-1 [12]): 85900 µM; Kd (BdorOBP83a-2 [14]): 52.5 µM
13 | > 50 | > 50 |  |  | > 50 | > 50 | > 50 | > 50 | CCCCC1CCC(=O)O1 (stereo not drawn) [γ-octalactone] | 
